Source: the supplement of paper PMC10883282
Structures can show the parent of a compound that is named as a salt. ± gives the standard deviation of the averaged measurements.

Tested on: A204
Assay: relative viability vs DMSO control (72 h) (fraction); higher = more viable cells
In short: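 Sarcoma cell lines were seeded in 384-well plates at densities chosen for 80–90% confluence, then 24 h later given 2.5 µl of serially diluted compound drawn from source plates spanning 10 mM to 0.0002 mM. They were held 72 h at 37 °C, 5% CO2, with 0.1% DMSO vehicle and a 5 µM positive control included. Relative viability was read with ATPLite as percent growth and averaged over up to triplicate wells. Rescaling placed full at 1 and none at 0.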

Compound | relative viability (0.00017 µM) | relative viability (0.00051 µM) | relative viability (0.00152 µM) | relative viability (0.00457 µM) | relative viability (0.01372 µM) | relative viability (0.04115 µM) | relative viability (0.1235 µM) | relative viability (0.3704 µM) | relative viability (1.111 µM) | relative viability (3.333 µM) | relative viability (10 µM)
C[C@@H]1COCCN1c1cc(-c2ccnn2C)c2ccnc(-c3ccn[nH]3)c2n1 | 1.07 ± 0.068 | 1.05 ± 0.039 | 1.07 ± 0.067 | 1.08 ± 0.061 | 1.03 ± 0.037 | 0.903 ± 0.019 | 0.668 ± 0.05 | 0.431 ± 0.04 | 0.291 ± 0.015 | 0.231 ± 0.0066 | 0.222 ± 0.0062
CCN1CCN(Cc2ccc(Nc3ncc(F)c(-c4cc(F)c5nc(C)n(C(C)C)c5c4)n3)nc2)CC1 [Abemaciclib] | 1.05 ± 0.033 | 1.04 ± 0.035 | 1.04 ± 0.017 | 1.03 ± 0.034 | 0.976 ± 0.015 | 0.876 ± 0.027 | 0.77 ± 0.08 | 0.564 ± 0.023 | 0.417 ± 0.024 | 0.383 ± 0.031 | 0.333 ± 0.029
CCc1cc2c(cc1N1CCC(N3CCOCC3)CC1)C(C)(C)c1[nH]c3cc(C#N)ccc3c1C2=O [Alectinib] | 1.09 ± 0.015 | 1.07 ± 0.028 | 1.09 ± 0.023 | 1.1 ± 0.036 | 1.08 ± 0.012 | 1.09 ± 0.0079 | 1.13 ± 0.021 | 1.13 ± 0.014 | 1.104 ± 0.005 | 1.14 ± 0.036 | 1.14 ± 0.07
Cc1nc(NC(=O)N2CCC[C@H]2C(N)=O)sc1-c1ccnc(C(C)(C)C(F)(F)F)c1 [Alpelisib] | 0.942 ± 0.046 | 0.988 ± 0.037 | 1 ± 0.02 | 1.02 ± 0.06 | 0.983 ± 0.019 | 0.925 ± 0.035 | 0.895 ± 0.038 | 0.7675 ± 0.0064 | 0.651 ± 0.027 | 0.557 ± 0.052 | 0.414 ± 0.03
Cn1cc(-c2cc3c(N4CCN(c5ncc([C@@](C)(N)c6ccc(F)cc6)cn5)CC4)ncnn3c2)cn1 [Avapritinib] | 1.02 ± 0.02 | 1.06 ± 0.024 | 1.05 ± 0.023 | 1.05 ± 0.063 | 1.02 ± 0.056 | 0.959 ± 0.061 | 0.77 ± 0.019 | 0.507 ± 0.013 | 0.359 ± 0.024 | 0.282 ± 0.017 | 0.212 ± 0.012
CC(C)NC(=O)C1CCC(n2c(NC(=O)c3ccc(F)cc3)nc3ccc(CN4CCC(C(C)(C)O)CC4)cc32)CC1 (centres undefined) [Belizatinib] | 1.1 ± 0.019 | 1.11 ± 0.056 | 1.11 ± 0.034 | 1.08 ± 0.02 | 1.092 ± 0.0066 | 1.09 ± 0.044 | 1.08 ± 0.026 | 1.05 ± 0.029 | 0.984 ± 0.086 | 0.727 ± 0.019 | 0.361 ± 0.069
Cn1cnc2c(F)c(Nc3ccc(Br)cc3F)c(C(=O)NOCCO)cc21 [Binimetinib] | 1.04 ± 0.031 | 1.06 ± 0.029 | 1.063 ± 0.0083 | 1.07 ± 0.019 | 1.04 ± 0.015 | 1.02 ± 0.043 | 1.02 ± 0.023 | 0.9365 ± 0.0019 | 0.922 ± 0.023 | 0.902 ± 0.038 | 0.713 ± 0.023
Nc1cc(C(F)(F)F)c(-c2cc(N3CCOCC3)nc(N3CCOCC3)n2)cn1 [Buparlisib] | 1.05 ± 0.023 | 1.03 ± 0.021 | 1.05 ± 0.032 | 1.02 ± 0.013 | 1.03 ± 0.065 | 1.01 ± 0.038 | 0.879 ± 0.021 | 0.673 ± 0.011 | 0.332 ± 0.066 | 0.174 ± 0.0058 | 0.155 ± 0.0086
CNC(=O)c1ccc(-c2cnc3ncc(Cc4ccc5ncccc5c4)n3n2)cc1F [Capmatinib] | 1.1 ± 0.029 | 1.07 ± 0.019 | 1.08 ± 0.04 | 1.08 ± 0.024 | 1.07 ± 0.038 | 1.06 ± 0.015 | 1.1 ± 0.02 | 1.07 ± 0.054 | 1.04 ± 0.027 | 0.984 ± 0.054 | 0.787 ± 0.035
COc1cc2c(Oc3ccc4[nH]c(C)cc4c3F)ncnc2cc1OCCCN1CCCC1 [Cediranib] | 1.086 ± 0.0095 | 1.06 ± 0.017 | 1.08 ± 0.064 | 1.09 ± 0.024 | 0.984 ± 0.051 | 0.882 ± 0.09 | 0.457 ± 0.0087 | 0.336 ± 0.0094 | 0.251 ± 0.027 | 0.182 ± 0.0051 | 0.00917 ± 0.0011
COc1c(OCCCN2CCOCC2)ccc2c1N=C(NC(=O)c1cnc(N)nc1)N1CCN=C21 [Copanlisib] | 1.05 ± 0.035 | 1.01 ± 0.07 | 0.927 ± 0.023 | 0.711 ± 0.055 | 0.583 ± 0.037 | 0.481 ± 0.049 | 0.399 ± 0.05 | 0.316 ± 0.027 | 0.268 ± 0.018 | 0.235 ± 0.019 | 0.211 ± 0.038
CN1CCN(c2ccc3nc(-c4c(N)c5c(F)cccc5[nH]c4=O)[nH]c3c2)CC1 [Dovitinib] | 1.1 ± 0.031 | 1.06 ± 0.031 | 1.06 ± 0.064 | 1.07 ± 0.046 | 1.01 ± 0.052 | 1.03 ± 0.056 | 0.907 ± 0.1 | 0.771 ± 0.029 | 0.355 ± 0.054 | 0.0814 ± 0.011 | 0.0143 ± 0.0029
COc1cccc2c1C(=O)c1c(O)c3c(c(O)c1C2=O)C[C@@](O)(C(=O)CO)C[C@@H]3O[C@H]1C[C@H](N)[C@H](O)[C@H](C)O1 [Doxorubicin Hydrochloride] | 1.06 ± 0.015 | 1.07 ± 0.06 | 1.04 ± 0.006 | 0.941 ± 0.031 | 0.779 ± 0.1 | 0.56 ± 0.068 | 0.314 ± 0.032 | 0.137 ± 0.024 | 0.128 ± 0.0019 | 0.123 ± 0.014 | 0.118 ± 0.019
Cc1cnc(Nc2ccc(OCCN3CCCC3)cc2)nc1Nc1cccc(S(=O)(=O)NC(C)(C)C)c1 [Fedratinib] | 1.07 ± 0.066 | 1.07 ± 0.022 | 1.13 ± 0.041 | 1.08 ± 0.035 | 1.09 ± 0.017 | 1.02 ± 0.034 | 0.97 ± 0.035 | 0.712 ± 0.088 | 0.396 ± 0.056 | 0.13 ± 0.016 | 0.0146 ± 0.0016
